Results taken from BindingDB's records for doi:10.7270/Q2PZ577D (The Scripps Research Institute Molecular Screening Center, 2008).

Target: T1, Signal transducer and activator of transcription 3 [702-738,740-752] (Homo sapiens, UniProt P40763)
T1 construct: 702-738,740-752
Experiment: dose response, counter-screen for STAT1 inhibitor project (AID 1409)

T1 sequence (P40763 as listed by the source): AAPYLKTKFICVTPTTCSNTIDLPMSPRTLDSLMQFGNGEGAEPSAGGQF

## CCN1C(=O)C(=CNNC(=O)c2ccncc2)C(=O)N(CC)C1=S [SMR000218837]
  IC50: > 55.7 µM
